IC50 data for 13 molecules are collected here from patent US20240294522A1 (Lead Discovery Center GmbH, priority 2021, published 2024).

The target of one assay is T1, GRK5 (Homo sapiens, UniProt P34947).
T1 construct: purchased Thermo Scientific
The assay can be described thus: Lance Kinase Activity Assay, GRK5. As to conditions: biochemical Lance kinase activity assay; class symbols A-F; read-out: GRK5 LANCE Assay (IC-50). In a few lines:
(§1)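 IC50s from sigmoidal dose-response over 0.0025-10 μM compound, with phosphorylated ULight substrate detected by Eu anti-phospho antibody FRET after EDTA quench.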

The next assay addresses T2, GRK2 (Homo sapiens, UniProt P25098).
T2 construct: purchased Thermo Scientific
T2 sequence (P25098 1-689): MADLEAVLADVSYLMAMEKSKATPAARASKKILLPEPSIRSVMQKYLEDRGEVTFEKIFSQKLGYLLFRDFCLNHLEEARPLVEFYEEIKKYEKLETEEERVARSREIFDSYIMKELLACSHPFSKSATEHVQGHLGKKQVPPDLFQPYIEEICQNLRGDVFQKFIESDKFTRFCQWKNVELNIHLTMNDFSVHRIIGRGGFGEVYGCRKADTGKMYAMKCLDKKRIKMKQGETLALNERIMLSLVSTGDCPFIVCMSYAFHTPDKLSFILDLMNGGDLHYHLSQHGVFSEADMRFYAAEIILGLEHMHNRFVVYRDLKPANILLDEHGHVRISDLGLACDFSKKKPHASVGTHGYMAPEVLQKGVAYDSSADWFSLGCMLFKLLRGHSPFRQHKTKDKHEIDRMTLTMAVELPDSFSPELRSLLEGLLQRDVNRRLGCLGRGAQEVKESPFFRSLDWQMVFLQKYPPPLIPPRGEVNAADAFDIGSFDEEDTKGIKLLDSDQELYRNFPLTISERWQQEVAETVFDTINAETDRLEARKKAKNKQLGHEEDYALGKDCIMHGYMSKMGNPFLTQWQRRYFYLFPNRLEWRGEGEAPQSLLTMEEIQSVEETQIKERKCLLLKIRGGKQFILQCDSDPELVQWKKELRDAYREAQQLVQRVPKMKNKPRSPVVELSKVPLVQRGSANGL
The assay can be described thus: Lance Kinase Activity Assay, GRK2. As to conditions: biochemical Lance kinase activity assay; class symbols A-F; read-out: GRK2 LANCE Assay (IC-50). In a few lines: as §1
For orientation: Time-resolved FRET reads energy transfer from a long-lived donor to a nearby acceptor.

T1 sequence (P34947 whole entry): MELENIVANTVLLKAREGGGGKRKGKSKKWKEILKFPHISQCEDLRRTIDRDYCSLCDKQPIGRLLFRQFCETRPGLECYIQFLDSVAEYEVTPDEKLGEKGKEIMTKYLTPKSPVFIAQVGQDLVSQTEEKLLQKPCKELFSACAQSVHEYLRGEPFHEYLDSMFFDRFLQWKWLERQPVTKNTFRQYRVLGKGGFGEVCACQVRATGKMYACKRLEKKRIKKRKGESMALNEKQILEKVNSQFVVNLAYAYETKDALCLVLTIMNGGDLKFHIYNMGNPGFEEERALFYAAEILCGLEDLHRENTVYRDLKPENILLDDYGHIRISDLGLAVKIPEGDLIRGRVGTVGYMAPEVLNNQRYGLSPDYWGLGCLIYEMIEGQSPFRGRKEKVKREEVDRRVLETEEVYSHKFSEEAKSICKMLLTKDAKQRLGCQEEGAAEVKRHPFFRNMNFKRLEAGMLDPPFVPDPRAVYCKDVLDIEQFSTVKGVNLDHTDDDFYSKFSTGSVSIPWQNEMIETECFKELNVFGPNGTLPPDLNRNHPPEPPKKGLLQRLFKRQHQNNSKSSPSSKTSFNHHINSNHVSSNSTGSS

On to `COc1ccc([C@@H](C)NC(=O)/C(C#N)=C/c2c[nH]c3ncc(OC4CCS(=O)(=O)CC4)cc23)cc1OC` [Example 105, (R,E)-2-cyano-N-(1-(3,4-dimethoxyphenyl)ethyl)-3-(5-((1,1-dioxidotetrahydro-2H-thiopyran-4-yl)oxy)-1H-pyrrolo[2,3-b]pyridin-3-yl)acrylamide], for which the IC50 is ≤ 50 nM on GRK5 and 1000 to 10000 nM on GRK2.
Take `COc1ccc([C@@H](C)NC(=O)/C=C/c2c[nH]c3ncc(-c4cccc(OCCCN(C)C)c4)cc23)cc1OC` [Example 188]: the results for the IC50 at GRK5 and on GRK2 were ≤ 50 nM and 500 to 1000 nM, respectively.
In the case of `N#C/C(=C\c1c[nH]c2ncccc12)C(=O)NCc1ccccc1S(=O)(=O)N1CCOCC1` [Example 41, (E)-2-cyano-N-(2-(morpholinosulfonyl)benzyl)-3-(1H-pyrrolo[2,3-b]pyridin-3-yl)acrylamide], the IC50 on GRK5 fell in the range of 100 to 500 nM; at GRK2, 1000 to 10000 nM.
The like results for `COc1ccc([C@@H](C)NC(=O)/C(C#N)=C/c2c[nH]c3ncc(-c4cccc(N(C)C)c4)cc23)cc1OC` [Example 128, (R,E)-2-cyano-N-(1-(3,4-dimethoxyphenyl)ethyl)-3-(5-(3-(dimethylamino)phenyl)-1H-pyrrolo[2,3-b]pyridin-3-yl)acrylamide] were, in that order, 100 to 500 nM and > 10000 nM.
The like results for `N#C/C(=C\c1c[nH]c2ncccc12)C(=O)NCc1ccc(S(N)(=O)=O)cc1` [Example 21, (E)-2-cyano-3-(1H-pyrrolo[2,3-b]pyridin-3-yl)-N-(4-sulfamoylbenzyl)acrylamide] were, in that order, 1000 to 10000 nM and > 10000 nM.
As for `COc1ccc(-c2cnc3[nH]cc(/C=C(/C#N)C(=O)N[C@H](C)c4ccc(OC)c(OC)c4)c3c2)cc1OC` [Example 146], the IC50 on GRK5 was 50 to 100 nM; at GRK2 it was > 10000 nM.
The like results for `COc1ccc([C@@H](C)NC(=O)/C(C#N)=C/c2c[nH]c3ncc(-c4ccc(N5CCN(C)CC5)cc4)cc23)cc1OC` [Example 112, (R,E)-2-cyano-N-(1-(3,4-dimethoxyphenyl)ethyl)-3-(5-(4-(4-methylpiperazin-1-yl)phenyl)-1H-pyrrolo[2,3-b]pyridin-3-yl)acrylamide] were, in that order, ≤ 50 nM and 500 to 1000 nM.
For the molecule `COc1ccc(C(C)NC(=O)/C=C/c2c[nH]c3ncc(-c4cnn(C)c4)cc23)cc1C1CC1` (centres unmarked) [Example 253, (E)-N-(1-(3-cyclopropyl-4-methoxyphenyl)ethyl)-3-(5-(1-methyl-1H-pyrazol-4-yl)-1H-pyrrolo[2,3-b]pyridin-3-yl)acrylamide], the IC50 at GRK5 was 50 to 100 nM; on GRK2, > 10000 nM.
For the molecule `COc1ccc([C@@H](C)NC(=O)C(C#N)=Cc2c[nH]c3ncc(-c4ccc(CCN(C)C)cc4)cc23)cc1OC` (stereo in doubt) [Example 135], the figures for the IC50 at GRK5 and on GRK2 were ≤ 50 nM and 1000 to 10000 nM, respectively.
The like results for `COc1ccc([C@@H](C)NC(=O)/C(C#N)=C/c2c[nH]c3nccc(-c4cc(F)cc(F)c4)c23)cc1OC` [Example 178] were, in that order, 100 to 500 nM and > 10000 nM.
`COc1ccc([C@@H](C)NC(=O)/C=C/c2c[nH]c3ncc(-c4cccc(S(N)(=O)=O)c4)cc23)cc1OC` [Example 208, (R,E)-N-(1-(3,4-dimethoxyphenyl)ethyl)-3-(5-(3-sulfamoylphenyl)-1H-pyrrolo[2,3-b]pyridin-3-yl)acrylamide]: the IC50 at GRK5 was ≤ 50 nM; on GRK2 it was 1000 to 10000 nM.
For `COc1ccc([C@@H](C)NC(=O)/C=C/c2c[nH]c3nccc(-c4ccc(NS(C)(=O)=O)cc4)c23)cc1OC` [Example 226, (R,E)-N-(1-(3,4-dimethoxyphenyl)ethyl)-3-(4-(4-(methylsulfonamido)phenyl)-1H-pyrrolo[2,3-b]pyridin-3-yl)acrylamide], the IC50 lay in the range of 50 to 100 nM at GRK5 and 1000 to 10000 nM on GRK2.
`C[C@@H](NC(=O)/C(C#N)=C/c1c[nH]c2ncccc12)c1cccc(F)c1` [Example 1, (R,E)-2-cyano-N-(1-(3-fluorophenyl)ethyl)-3-(1H-pyrrolo[2,3-b]pyridin-3-yl)acrylamide]: the IC50 at GRK5 and at GRK2 was 100 to 500 nM each time.
